Where two headings read alike, the source gives them in different places.
Legend:
[1] = tested on: human breast carcinoma cell line MCF-7; test: MTT antiproliferative assay against MCF-7; format: cell-based; conditions: read-out: IC50 (anticancer activity against MCF-7 cell line)
Description: All the synthesised naphthalene-chalcone derivatives 3a–3t were evaluated for their anticancer activity by 3-[4,5-dimethylthiazole-2-yl]-2,5-diphenyltetrazolium bromide (MTT) assay method against human breast carcinoma cell line MCF-7. Cisplatin was used as a reference drug. […]. […]
culture, the culture medium was removed, and cells were incubated with tetrazolium dye [3-(4,5-dimethylthiazol-2-yl)-2,5-diphenyltetrazo-lium bromide (MTT) solution for 4 h. Then, the supernatant was removed and the precipitates (formazan crystal) were […]
dissolved in DMSO. […]

[2] = tested on: tubulin; test: In vitro tubulin polymerisation inhibitory assay; format: biochemical
Description: 1.3 In vitro tubulin polymerization assay
To evaluate the eﬀect of the compound 3a on tubulin assembly in vitro, varying
DMSO were incubated with purified tubulin protein in PEM buffer [100 mM PIPES
(1,4-Piperazinediethanesulfonic acid), 1 mM MgCl2, and 1 mM EGTA(ethylene glycol
tetraacetic acid)] containing 1 mM GTP and 5 % glycerol. […]

[3] = tested on: MCF-7 cells; test: Cell cycle analysis by flow cytometry (PI); format: cell-based, human; conditions: 2.0 µM, 24 h
Description: Many studies have reported that tubulin polymerisation inhibitors can arrest cancer cells in G2/M phase and lead to apoptosis[24]^,[25]. The potent tubulin polymerisation inhibitory activity of compound 3a promoted us to further investigate its cellular mechanisms of action in MCF-7 cancer cells by using flow cytometry analysis. In order to elucidate the molecular mechanism of compound 3a, we first studied its effect on cell cycle progression in MCF-7 cells. […] In contrast, after treatment of MCF-7 cells with compound 3a at concentrations of 2.0 µM, the accumulation of cancer cells was detected at G2/M phase by 5.5 folds compared to the control group, from 15.19% in the control group to 84.55% in the compound 3a treated group (Figure 4). […]
MCF-7 cells were seeded in 6-well plates and incubated at 37 °C for overnight and treatment with DMSO or compound 3a (0.5, 2.0 and 10.0 μM) for 24 h. The cells were washed twice with PBS, and incubated for 0.5 h at 37 °C in a PBS solution containing 1 mg/mL RNase A and propidium iodide (PI). C ell cycle was analyzed by flow cytometry (TASC240, USA).

[4] = in vitro; conditions: human
[5] = tested on: MCF-7 cells; test: Annexin V FITC/PI apoptosis assay; format: cell-based, human; conditions: 2.0 µM, 24 h
Description: To investigate whether compound 3a could induces apoptosis, the apoptotic effect of compound 3a and DMSO (control) were evaluated by an annexin V FITC/PI (AV/PI) dual staining assay. After treatment MCF-7 cells with compound 3a at the concentration of 2.0 µM for 24 h, the cells were labelled with the two dyes and analysed by flow cytometry. […] In addition, an increase in the early/primary apoptosis was also observed from 1.85% to 20.0% (Figure 4).
MCF-7 cells were grown in 6-well plates and treated with compound 3a (0.5, 2.0 and
10.0 μM) or DMSO for 24 h. After treatment, the cells were collected and stained with
PI (propidium iodide) for 20 min. Apoptosis was analyzed using a flow cytometer. […]

[6] = tested on: SW620 colon cancer cells; design: method as in PMID 25193463; conditions: cited from earlier work
[7] = tested on: xenografted tumour; design: method as in PMID 24308485; conditions: cited from earlier work

Compound	melting point [°C]	IC50 ([1]; Homo sapiens, MCF7, 48 h) [µM]	also measured
COc1ccc(/C=C/C(=O)c2c(OC)ccc3ccccc23)cc1[N+](=O)[O-] [3i]	157 to 159	7.82 ± 0.35	–
COc1ccc2ccccc2c1C(=O)/C=C/c1ccccc1Br [3d]	150 to 152	7.63 ± 0.45	–
COc1ccc2ccccc2c1C(=O)/C=C/c1cccs1 [3j]	149 to 150	> 10	–
COc1ccc2ccccc2c1C(=O)/C=C/c1ccc(N(C)C)cc1 [3r]	147 to 148	8.91 ± 0.52	–
COc1ccc2ccccc2c1C(=O)/C=C/c1ccccc1 [3n]	142 to 144	7.62 ± 0.36	–
COc1ccc2ccccc2c1C(=O)/C=C/c1ccccc1F [3m]	–	6.66 ± 0.27	–
COc1cc(OC)c(/C=C/C(=O)c2c(O)ccc3ccccc23)c(OC)c1 [HMNC-74]	–	–	inhibition of clonogenicity [6]: strongly inhibited
COc1ccc2ccccc2c1C(=O)/C=C/c1cccc2ccccc12 [3e]	162 to 163	7.13 ± 0.33	–
CCN(CC)c1ccc(/C=C/C(=O)c2c(OC)ccc3ccccc23)cc1 [3s]	142 to 144	7.62 ± 0.3	–
N.N.[Cl][Pt][Cl] [Cisplatin, reference compound]	–	–	IC50 ([1]; 48 h): 15.2 ± 1.27 µM
COc1ccc(C(=O)/C=C/c2cccc3ccccc23)c(O)c1 [HymnPro, 2-hydroxy-4-methoxy-2′,3′-benzochalcone]	–	–	effect on xenografted tumour growth [7]: suppressed xenografted tumour growth
COc1ccc(/C=C/C(=O)c2c(OC)ccc3ccccc23)c(OC)c1OC [3c]	107 to 108	> 10	–
COc1ccc2ccccc2c1C(=O)/C=C/c1ccc(Cl)cc1 [3k]	142 to 143	4.74 ± 0.19	–
COc1cc(OC)c(OC)cc1/C=C/C(=O)c1c(OC)ccc2ccccc12 [3l]	147 to 149	7.68 ± 0.32	–

Further compounds by falling IC50 ([1]; Homo sapiens, MCF7, 48 h), results first:

melting point [°C]	IC50 ([1]; Homo sapiens, MCF7, 48 h) [µM]	Compound	also measured
124 to 126	7.67 ± 0.39	COc1ccccc1/C=C/C(=O)c1c(OC)ccc2ccccc12 [3q]	–
113 to 114	7.23 ± 0.38	COc1cc(/C=C/C(=O)c2c(OC)ccc3ccccc23)cc(OC)c1OC [3p]	–
168 to 169	7.11 ± 0.4	COc1ccc(/C=C/C(=O)c2c(OC)ccc3ccccc23)cc1Br [3g]	–
142 to 143	7.11 ± 0.47	COc1ccc2ccccc2c1C(=O)/C=C/c1cccc(F)c1 [3o]	–
107 to 109	6.87 ± 0.26	COc1ccc2ccccc2c1C(=O)/C=C/c1ccc2ccccc2c1 [3f]	–
109 to 110	6.67 ± 0.25	COc1cccc(/C=C/C(=O)c2c(OC)ccc3ccccc23)c1 [3h]	–
127 to 129	4.1 ± 0.25	COc1ccc2ccccc2c1C(=O)/C=C/c1ccc(Br)cc1 [3b]	–
–	2.75 ± 0.26	COc1ccc(/C=C/C(=O)c2c(OC)ccc3ccccc23)cc1N [3t]	–
–	1.42 ± 0.15	COc1ccc(/C=C/C(=O)c2c(OC)ccc3ccccc23)cc1O [3a]	inhibition of tubulin polymerisation ([2]; 3.0 µM): 21%; inhibition of tubulin polymerisation ([2]; 6.0 µM): 41%; inhibition of tubulin polymerisation ([2]; 12.5 µM): 60%; inhibition of tubulin polymerisation ([2]; 25 µM): 82%; IC50 ([2]; purified tubulin, absorbance 340 nm, read-out: IC50 tubulin polymerisation inhibition): 8.4 µM; accumulation of cells at G2/M phase compared to control [3]: 5.5 folds; cells in G1 phase [3]: 0.04%; cells in S phase [3]: 15.41%; cells in G2/M phase ([3]; control 15.19%): 84.55%; IC50 [4]: 18.3 ± 1.3 µM; Q1 cell fraction [5]: 1.95%; Q4 cell fraction [5]: 71.7%; late/secondary cellular apoptosis (Q2) ([5]; control 0.68%): 6.34%; early/primary apoptosis (Q3) ([5]; control 1.85%): 20.0%
